Source: ChEMBL document CHEMBL1142085, “Once-weekly micafungin therapy is as effective as daily therapy for disseminated candidiasis in mice with persistent neutropenia” (Antimicrob Agents Chemother, 2007)
Converted amounts (≈) assume the structure as drawn. The source made the active and inactive calls. The rule behind the calls is not given here. *1 amine or outer side, *2 acyl side, *3 side chain or, on linkers, in order; H or OH if unused. Where a SMILES comes first, the peptide text is derived from it. Bridges are numbered along the chain shown (N, C = ends). [ ]: non-standard residue; d: D form. The star is where a group is joined. hTyr(3S-OH,4S-OH,3'-OSO3H) = N[C@H](C(=O)O)[C@H](O)[C@@H](O)c1ccc(O)c(OS(=O)(=O)O)c1; Orn(4R-OH,5R-OH) = O=C([C@H](C[C@@H](O)[C@@H](O)N[*:3])N[*:1])[*:2]; Pro(3S-OH,4S-Me) = C[C@H]1CN[C@H](C(=O)O)[C@H]1O; X1 = CCCCCOc1ccc(-c2cc(-c3ccc(C(=O)*)cc3)no2)cc1; Gln(3R-OH) = NC(=O)C[C@@H](O)[C@H](N)C(=O)O; Hyp = O=C(O)[C@@H]1C[C@@H](O)CN1

Columns and labels:
Nakaseomyces glabratus [1] = assay: Reduction of kidney fungal burden in Candida glabrata infected ip dosed neutropenic Swiss Webster mouse; assay type: functional
Nakaseomyces glabratus [2] = assay: Reduction of spleen fungal burden in Candida glabrata infected ip dosed neutropenic Swiss Webster mouse; assay type: functional
Nakaseomyces glabratus [3] = assay: Reduction of lung fungal burden in Candida glabrata infected ip dosed neutropenic Swiss Webster mouse; assay type: functional
[4] = Serum clearance in Candida glabrata infected neutropenic Swiss Webster mouse; assay type: ADME, organism-based
Nakaseomyces glabratus [5] = assay: Antifungal activity against Candida glabrata isolated from candidemia patient after 48 hrs; assay type: functional
Nakaseomyces glabratus [6] = assay: Reduction of fungal burden in Candida glabrata infected neutropenic Swiss Webster mouse at 100 mg/kg, ip after 7 days; assay type: functional, organism-based; parameters: dose 100 mg/kg
Nakaseomyces glabratus [7] = assay: Antifungal activity against Candida glabrata isolated from candidemia patient after 24 hrs; assay type: functional
Nakaseomyces glabratus [8] = assay: Reduction of kidney fungal burden in Candida glabrata infected neutropenic Swiss Webster mouse at >=50 mg/kg, ip after 7 days; assay type: functional, organism-based

SMILES: CCCCCOc1ccc(-c2cc(-c3ccc(C(=O)N[C@H]4C[C@@H](O)[C@@H](O)NC(=O)[C@@H]5[C@@H](O)[C@@H](C)CN5C(=O)[C@H]([C@H](O)CC(N)=O)NC(=O)[C@H]([C@H](O)[C@@H](O)c5ccc(O)c(OS(=O)(=O)O)c5)NC(=O)[C@@H]5C[C@@H](O)CN5C(=O)[C@H]([C@@H](C)O)NC4=O)cc3)no2)cc1 [MICAFUNGIN] (X1-[Orn(4R-OH,5R-OH)]T[Hyp][hTyr(3S-OH,4S-OH,3'-OSO3H)][Gln(3R-OH)][Pro(3S-OH,4S-Me)]; lactam 1-C)
- ED50 (Nakaseomyces glabratus [1]): 14.7 mg/kg
- ED50 (Nakaseomyces glabratus [2]): 7.38 mg/kg
- ED50 (Nakaseomyces glabratus [3]): 17.3 mg/kg
- clearance [4]: 0.0133 mL/min
- MIC (Nakaseomyces glabratus [5]): 0.02 µg/mL (≈ 0.0157 µM)
- Activity (Nakaseomyces glabratus [6]): Active
- MIC (Nakaseomyces glabratus [7]): 0.02 µg/mL (≈ 0.0157 µM)
- Activity (Nakaseomyces glabratus [8]): Active
